Measured values from patent US11730743B2, “Protection of cells from degeneration and treatment of geographic atrophy” (University of Kentucky Research Foundation, priority 2012, dated 2023).
The star is where a group is joined. Cbz = O=C(OCc1ccccc1)*; CH2F = FC*

What was measured:
[1] = system: wild-type mice; experiment: Alu RNA- or pAlu-induced RPE degeneration after subretinal injection (fundus photographs, ZO-1 flat mounts); format: in vivo; conditions: test agent intravitreous; for pAlu-induced RPE degeneration: subretinal pAlu
Procedure: Subretinal injection and imaging. Subretinal injections (1 μL) in mice were performed using a Pico-Injector (PLI-100, Harvard Apparatus). In vivo transfection of plasmids was achieved using 10% Neuroporter (Genlantis). Fundus imaging was performed on a TRC-50 IX camera (Topcon) linked to a digital imaging system (Sony). Immunolabeling of RPE flat mounts was performed using antibodies against human zonula occludens-1 (Invitrogen).
(§1) Fundus photography. Retinal photographs of dilated mouse eyes were taken with a TRC-50 IX camera (Topcon) linked to a digital imaging system (Sony).
(§2) Immunolabeling. Human eyes fixed in 2-4% paraformaldehyde were prepared as eyecups, cryoprotected in 30% sucrose, embedded in optimal cutting temperature compound (Tissue-Tek OCT; Sakura Finetek), and cryosectioned into 10 μm sections. Depigmentation was achieved using 0.25% potassium permanganate and 0.1% oxalic acid. Immunohistochemical staining was performed with the rabbit antibody against NLRP3 (1:100, Sigma Aldrich) or rabbit antibody against Caspase-1 (prediluted, AbCam). Isotype IgG was substituted for the primary antibody to assess the specificity of the staining. Bound antibody was detected with biotin-conjugated secondary antibodies, followed by incubation with ABC reagent and visualized by Vector Blue (Vector Laboratories). Levamisole (Vector Laboratories) was used to block endogenous alkaline phosphatase activity. Slides were washed in PBS, counterstained with neutral red (Fisher Scientific), rinsed with deionized water, air dried, and then mounted in Vectamount (Vector Laboratories). Fluorescent labeling of human tissue was performed with the rabbit antibody against PYCARD (1:50, Clone N-15, Santa Cruz Biotechnology). Immunolabeling was visualized by fluorescently conjugated anti-rabbit secondary antibody (Invitrogen). Tissue autofluorescence was quenched by incubating the sections in 0.3% Sudan black (Fisher Scientific). Sections were mounted in Vectashield with DAPI (Vector Laboratories). Mouse RPE/choroid flat mounts were fixed with 4% paraformaldehyde or 100% methanol, stained with rabbit antibodies against human zonula occludens-1 (1:100, Invitrogen) and visualized with Alexa594 (Invitrogen). All images were obtained using the Leica SP-5 or Zeiss Axio Observer Z1 microscopes.
Subretinal injection. Subretinal injections (1 μL) in mice were performed using a Pico-Injector (PLI-100, Harvard Apparatus). In vivo transfection of plasmids coding for two different Alu sequences (pAlu) or empty control vector (pNull) (Bennett et al., 2008; Kaneko et al., 2011; Shaikh et al., 1997) was achieved using 10% Neuroporter (Genlantis). AAV1-BEST1-Cre (Alexander and Hauswirth, 2008) or AAV1-BEST1-GFP were injected at […] pfu/mL and in vitro transcribed Alu RNA was injected at 0.3 mg/mL.
(§3) Drug treatments. siRNAs formulated in siRNA buffer (20 mM KCL, 0.2 mM MgCl2 in HEPES buffer at pH 7.5; Dharmacon) or phosphate buffered saline (PBS; Sigma-Aldrich); the TLR4 antagonist Ultra Pure Rhodobacter sphaeroides LPS (LPS-RS, InvivoGen), a peptide inhibitor of MyD88 homodimerization IMG-2005 (IMGENEX), control inhibitor (IMGENEX), recombinant IL-18 (Medical & Biological Laboratories), neutralizing rat antibodies against mouse IL-1β (IMGENEX), neutralizing rat antibodies against mouse IL-18 (Medical & Biological Laboratories), isotype control IgGs (R&D Systems or eBioscience as appropriate), Caspase-1 inhibitor Z-WEHD-FMK (R&D Systems), Caspase-3 inhibitor Z-DEVD-FMK (R&D Systems), Caspase control inhibitor Z-FA-FMK (R&D Systems), (2R,4R)-APDC (Enzo Life Sciences), Glipizide (Sigma-Aldrich), Glyburide (Sigma-Aldrich), and P2X7 receptor antagonist A438079 (Tocris Bioscience) were dissolved in phosphate buffered saline (PBS; Sigma-Aldrich) or dimethyl sulfoxide (DMSO; Sigma-Aldrich), and injected into the vitreous humor in a total volume of 1 μL with a 33-gauge Exmire microsyringe (Ito Corporation). […]

[2] = system: human RPE cells
Procedure: Cell viability. Cell viability measurements were performed using the CellTiter 96 AQueous One Solution Cell Proliferation Assay (Promega) in according to the manufacturer's instructions.
Cell culture. All cell cultures were maintained at 37° C. and 5% CO2. Primary mouse RPE cells were isolated as previously described (Yang et al., 2009) and grown in Dulbecco Modified Eagle Medium (DMEM) supplemented with 20% FBS and standard antibiotics concentrations. Primary human RPE cells were isolated as previously described (Yang et al., 2008) and maintained in DMEM supplemented with 10% FBS and antibiotics. HeLa cells were maintained in DMEM supplemented with 20% FBS and standard antibiotics concentrations. THP-1 cells were cultured in RPMI 1640 medium supplemented with 10% FBS and antibiotics.
Transient transfection. Human or mouse RPE cells were transfected with pUC19, pAlu, pCDNA3.1/Dicer-FLAG, pCDNA3.1, Alu RNA, NLRP3 siRNA sense, PYCARD siRNA sense, MyD88 siRNA sense, DICER1 antisense oligonucleotide (AS), control (for DICER1) AS, Alu AS, and control (for Alu) AS using Lipofectamine 2000 (Invitrogen) according to the manufacturer's instructions.
Cell viability. MTS assays were performed using the CellTiter 96 AQueous One Solution Cell Proliferation Assay (Promega) according to the manufacturer's instructions. For examining the cytoprotective effect of glycine in Alu RNA induced cell death, human RPE cells were transfected with pNull/pAlu. At 6 h post-transfection the cells were incubated with complete media containing glycine (5 mM) or vehicle, and cell viability was assessed after 24 h. Similarly, human RPE cells primed with LPS (5 μg/ml for 6 h) were treated with ATP (25 μM) in the presence of glycine containing media (5 mM). 30 min post ATP cell viability was assessed as described above.

[3] = system: wild-type mice; experiment: Laser-induced choroidal neovascularization; format: in vivo; conditions: intravitreous injection
[4] = system: Dicer1f/f mice; experiment: RPE degeneration induced by subretinal AAV1-BEST1-Cre (DICER1 loss); format: in vivo; conditions: inhibitor intravitreous
Procedure: as §2, with “Sections were mounted in Vectashield with DAPI (Vector Laboratories). Mouse RPE/choroid flat mounts were fixed with 4% paraformaldehyde or 100% methanol, stained with rabbit antibodies against human zonula occludens-1 (1:100, Invitrogen) and visualized with Alexa594 (Invitrogen). All images were obtained using the Leica SP-5 or Zeiss Axio Observer Z1 microscopes.” left out

[5] = system: IRAK1/4; experiment: Western blot of phosphorylated IRAK1/4 in human RPE cells; format: cell-based; conditions: normalized to Vinculin
Procedure: (§4) Protein abundance and activity. Protein abundance was assessed by Western blot analysis using primary antibodies recognizing Caspase-1 (1:500; Invitrogen), pIRAK1 (1:500; Thermo Scientific), pIRAK4 (1:500, Abbomax, Inc), PYCARD (1:200, Santa Cruz Biotechnology), NLRP3 (1:500, Enzo Life Sciences) and Vinculin (1:1,000; Sigma-Aldrich). Caspase-1 activity was visualized using Caspalux1 E1D2 (OncoImmunin) reagent according to the manufacturer's instructions.
Western blotting. Tissues or cells were homogenized in lysis buffer (10 mM Tris base, pH 7.4, 150 mM NaCl, 1 mM EDTA, 1 mM EGTA, 1% Triton X-100, 0.5% NP-40, protease and phosphatase inhibitor cocktail (Roche)). Protein concentrations were determined using a Bradford assay kit (Bio-Rad) with bovine serum albumin as a standard. Proteins (40-100 μg) were run on NuPAGE Bis-Tris gels (Invitrogen) and transferred to Immun-Blot PVDF membranes (Bio-Rad). Cells were scraped in hot Laemmli buffer (62.5 mM Tris base, pH 6.8, 2% SDS, 5% 2-Mercaptoethanol, 10% Glycerol, 0.01% Bromophenol Blue). Samples were boiled and run on 4-20% NuPAGE Tris-Glycine gels (Invitrogen). […] Protein loading was assessed by immunoblotting using an anti-Vinculin antibody (1:1,000; Sigma-Aldrich). […]

[6] = biological target: T1, Caspase-1 (Homo sapiens, UniProt P29466); experiment: Caspase-1 activation in cultured cells (western blot p20, Caspalux1 substrate cleavage); format: cell-based; conditions: human RPE cells; Caspalux1
T1 construct: endogenous in cells; host or cells: primary human RPE cells; also THP-1 and HeLa cells
T1 sequence (P29466 120-297 limits assumed): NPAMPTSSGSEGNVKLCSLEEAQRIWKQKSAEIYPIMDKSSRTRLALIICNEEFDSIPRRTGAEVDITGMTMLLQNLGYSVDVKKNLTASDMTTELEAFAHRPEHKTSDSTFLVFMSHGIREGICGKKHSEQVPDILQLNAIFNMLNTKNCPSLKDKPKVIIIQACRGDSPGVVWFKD
T1 sequence (P29466 317-404 limits assumed): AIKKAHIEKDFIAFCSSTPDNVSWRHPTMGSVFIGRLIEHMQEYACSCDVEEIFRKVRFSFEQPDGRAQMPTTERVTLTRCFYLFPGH
Procedure: as §4
Western blotting. Tissues or cells were homogenized in lysis buffer (10 mM Tris base, pH 7.4, 150 mM NaCl, 1 mM EDTA, 1 mM EGTA, 1% Triton X-100, 0.5% NP-40, protease and phosphatase inhibitor cocktail (Roche)). Protein concentrations were determined using a Bradford assay kit (Bio-Rad) with bovine serum albumin as a standard. Proteins (40-100 μg) were run on NuPAGE Bis-Tris gels (Invitrogen) and transferred to Immun-Blot PVDF membranes (Bio-Rad). Cells were scraped in hot Laemmli buffer (62.5 mM Tris base, pH 6.8, 2% SDS, 5% 2-Mercaptoethanol, 10% Glycerol, 0.01% Bromophenol Blue). Samples were boiled and run on 4-20% NuPAGE Tris-Glycine gels (Invitrogen). The transferred membranes were blocked for 1 h at RT and incubated with antibodies against human Caspase-1 (1:500; Invitrogen), mouse Caspase1 (1:500; MBL), NLRP3 (1:1000; Enzo Life Sciences), PYCARD (1:1000, RayBiotech), phospho-IRAK1 (S376) (1:500, Thermo Scientific), phospho-IRAK4 (T345) (1:500, AbboMax), DICER1 (1:2,000; Bethyl), MyD88 (1:1,000; Cell Signaling), and mouse IL-18 (1:200; MBL) at 4° C. overnight. Protein loading was assessed by immunoblotting using an anti-Vinculin antibody (1:1,000; Sigma-Aldrich). The secondary antibodies were used (1:5,000) for 1 h at RT. […]
Caspase-1 activity. […] Caspalux1E1D2 signal was quantified reading the fluorescence (excitation 552 nm, emission 580 nm) using a Synergy 4 reader (Biotek). Quantification of fluorescence from images was performed by converting images into grayscale in Adobe Photoshop CS5, and measuring the integrated density of black and white images using ImageJ software (NIH) (Bogdanovich et al., 2008).

[7] = system: IL-18; experiment: Western blot of IL-18 maturation in RPE cell lysates of wild-type mice; format: in vivo; conditions: inhibitor intravitreous
Procedure: as §3
Western blotting. […] Protein concentrations were determined using a Bradford assay kit (Bio-Rad) with bovine serum albumin as a standard. […] Protein loading was assessed by immunoblotting using an anti-Vinculin antibody (1:1,000; Sigma-Aldrich). […]

[8] = system: mice; experiment: RPE degeneration induced by intravitreous recombinant IL-18; format: in vivo; conditions: for RPE degeneration induced by recombinant IL-18: intravitreous
Procedure: as §1
as §2, with “microscopes. […]” for “microscopes.”

[9] = system: Caspase-3; experiment: Caspase-3 activation in the RPE of wild-type mice; format: in vivo; conditions: IL-18 alone
Procedure: Drug treatments. siRNAs formulated in siRNA buffer (20 mM KCL, 0.2 mM MgCl2 in HEPES buffer at pH 7.5; Dharmacon) or phosphate buffered saline (PBS; Sigma-Aldrich); the TLR4 antagonist Ultra Pure Rhodobacter sphaeroides LPS (LPS-RS, InvivoGen), a peptide inhibitor of MyD88 homodimerization IMG-2005 (IMGENEX), control inhibitor (IMGENEX), recombinant IL-18 (Medical & Biological Laboratories), neutralizing rat antibodies against mouse IL-1β (IMGENEX), neutralizing rat antibodies against mouse IL-18 (Medical & Biological Laboratories), isotype control IgGs (R&D Systems or eBioscience as appropriate), Caspase-1 inhibitor Z-WEHD-FMK (R&D Systems), Caspase-3 inhibitor Z-DEVD-FMK (R&D Systems), Caspase control inhibitor Z-FA-FMK (R&D Systems), (2R,4R)-APDC (Enzo Life Sciences), Glipizide (Sigma-Aldrich), Glyburide (Sigma-Aldrich), and P2X7 receptor antagonist A438079 (Tocris Bioscience) were dissolved in phosphate buffered saline (PBS; Sigma-Aldrich) or dimethyl sulfoxide (DMSO; Sigma-Aldrich), and injected into the vitreous humor in a total volume of 1 μL with a 33-gauge Exmire microsyringe (Ito Corporation). […] As a control, Luc siRNA-chol (17+2 nt) was used with identical dosages.
Caspase-3 activity. The caspase-3 activity was measured using Caspase-3 Fluorimetric Assay (R&D Systems) according to the manufacturer's instruction.

Clc1cccc(-c2nnnn2Cc2cccnc2)c1Cl [A438079]
pAlu-induced RPE degeneration [1]: blocked

O=C(Nc1nc2ccccc2n1CCN1CCOCC1)c1cccc([N+](=O)[O-])c1 [N-(2-Morpholinylethyl)-2-(3-nitrobenzoylamido)-benzimidazole]
Alu RNA-induced RPE degeneration ([1]; subretinal Alu RNA): blocked
Alu RNA-induced cytotoxicity, viability of human RPE cells [2]: protects
pAlu-induced cytotoxicity, viability of human RPE cells [2]: protects
laser-induced choroidal neovascularization [3]: reduced

COc1ccc(Cl)cc1C(=O)NCCc1ccc(S(=O)(=O)NC(=O)NC2CCCCC2)cc1 [glyburide, Glyburide]
pAlu-induced RPE degeneration [1]: inhibited

NCC(=O)O [glycine]
human RPE cell death induced by LPS+ATP ([2]; LPS 5 μg/ml 6 h, ATP 25 μM, glycine 5 mM, 30 min post ATP): inhibited

Cbz-WEHD-CH2F
pAlu-induced RPE degeneration [1]: blocked
AAV1-BEST1-Cre-induced RPE degeneration [4]: blocked
Alu RNA-induced phosphorylation of IRAK1/4 [5]: reduced
Alu RNA-induced fluorescent substrate cleavage (Caspase-1 activity) [6]: blocked
pAlu-induced IL-18 maturation [7]: blocked

Z-DEVD-FMK
IL-18-induced RPE degeneration ([8]; wild-type mice, inhibitor intravitreous): blocked

B1: Recombinant IL-18: recombinant IL-18 (Medical & Biological Laboratories) (protein, UniProt P70380 36-192, looked up)
Interleukin-18: NFGRLHCTTAVIRNINDQVLFVDKRQPVFEDMTDIDQSASEPQTRLIIYMYKDSEVRGLAVTLSVKDSKMSTLSCKNKIISFEEMDPPENIDDIQSDLIFFQKRVPGHNKMEFESSLYEGHFLACQKEDDAFKLILKKKDENGDKSVMFTLTNLHQS
RPE degeneration induced by recombinant IL-18 ([8]; Casp1−/− mice): induced RPE degeneration
RPE degeneration induced by recombinant IL-18 ([8]; wild-type mice): induced RPE degeneration
Caspase-3 activation in the RPE [9]: induced Caspase-3 activation
